Starred links: 1 amine or outer side, 2 acyl side, 3 side chain; linkers in the order of their positions; H or OH if unused. Positions of bridges follow the written chain, without caps; N, C: chain ends. Residues, ends and D or L forms follow the SMILES beside them. *: point of attachment. C20 diacid = O=C(O)CCCCCCCCCCCCCCCCCCC(=O)*; γGlu = O=C(O)[C@H](CCC(=O)[*:2])N[*:1]
Test: Assay (III) ThT fibrillation assay for physical stability
Format: physicochemical
Conditions: for ThT pH 4.0 lag time: pH 4.0, ThT fibrillation assay
Excerpt: Assay (III)—ThT Fibrillation Assays for the Assessment of Physical Stability of Protein formulations Low physical stability of a polypeptide may lead to amyloid fibril formation, which is observed as well-ordered, thread-like macromolecular structures in the sample eventually resulting in gel formation. This has traditionally been measured by visual inspection of the sample. However, that kind of measurement is very subjective and depending on the observer. Therefore, the application of a small molecule indicator probe is much more advantageous. Thioflavin T (ThT) is such a probe and has a distinct fluorescence signature when binding to fibrils [Naiki et al. (1989) Anal. Biochem. 177, 244-249; LeVine (1999) Methods. Enzymol. […], 274-284]. The time course for fibril formation can be described by a sigmoidal curve with the following expression [Nielsen et al. (2001) Biochemistry 40, 6036-6046]: [formula] Here, F is the ThT fluorescence at the time t. The constant t0 is the time needed to reach 50% of maximum fluorescence. […] Few of those intermediates nucleate to form a template onto which further intermediates may assembly and the fibrillation proceeds. The lag-time corresponds to the interval in which the critical mass of nucleus is built up and the apparent rate constant is the rate with which the fibril itself is formed. Sample Preparation Samples were prepared freshly before each assay. Each sample composition is described in each example. The pH of the sample was adjusted to the desired value using appropriate amounts of concentrated NaOH and HClO4 or HCl. Thioflavin T was added to the samples from a stock solution in H2O to a final concentration of 1 μM. Sample aliquots of 200 μl were placed in a 96 well microtiter plate (Packard OptiPlate™-96, white polystyrene). Usually, four or eight replica of each sample (corresponding to one test condition) were placed in one column of wells. The plate was sealed with Scotch Pad (Qiagen). Incubation and Fluorescence Measurement Incubation at given temperature, shaking and measurement of the ThT fluorescence emission were done in a Fluoroskan Ascent FL fluorescence platereader or Varioskan platereader (Thermo Labsystems). The temperature was adjusted to 37° C. The orbital shaking was adjusted to 960 rpm with an amplitude of 1 mm in all the presented data. Fluorescence measurement was done using excitation through a 444 nm filter and measurement of emission through a 485 nm filter. Each run was initiated by incubating the plate at the assay temperature for 10 min. The plate was measured every 20 minutes for a desired period of time. Between each measurement, the plate was shaken and heated as described. Data Handling The measurement points were saved in Microsoft Excel format for further processing and curve drawing and fitting was performed using GraphPad Prism. The background emission from ThT in the absence of fibrils was negligible. The data points are typically a mean of four or eight samples and shown with standard deviation error bars. Only data obtained in the same experiment (i.e. samples on the same plate) are presented in the same graph ensuring a relative measure of fibrillation between experiments. The data set may be fitted to Eq. (1). However, since full sigmodial curves in this case are not always achieved during the measurement time, the degree of fibrillation is expressed as ThT fluorescence tabulated as the mean of the samples and shown with the standard deviation at various time points. Measurement of Initial and Final Concentrations The polypeptide concentration in each of the tested formulations were measured both before application in the ThT fibrillation assay (“Initial”) and after completion of the ThT fibrillation (“After ThT assay”). Concentrations were determined by reverse HPLC methods using a pramlintide standard as a reference. Before measurement after completion 150 μl was collected from each of the replica and transferred to an Eppendorf tube. […]

CC[C@H](C)[C@H](NC(=O)[C@@H]1CCCN1C(=O)CNC(=O)[C@H](Cc1ccccc1)NC(=O)[C@H](CC(N)=O)NC(=O)[C@H](CC(N)=O)NC(=O)[C@H](CO)NC(=O)[C@H](CO)NC(=O)[C@H](Cc1c[nH]cn1)NC(=O)[C@H](CCCNC(=N)N)NC(=O)[C@H](CC(C)C)NC(=O)[C@H](Cc1ccccc1)NC(=O)[C@H](CCC(=O)O)NC(=O)[C@H](C)NC(=O)[C@H](CC(C)C)NC(=O)[C@H](CCCNC(=N)N)NC(=O)[C@H](CCC(N)=O)NC(=O)[C@@H](NC(=O)[C@H](C)NC(=O)[C@@H]1CSSC[C@H](NC(=O)[C@H](CCCCN)NC(=O)[C@H](Cc2c[nH]cn2)NC(=O)[C@H](Cc2c[nH]cn2)NC(=O)CC[C@H](NC(=O)CCCCCCCCCCCCCCCCCCC(=O)O)C(=O)O)C(=O)N[C@@H](CC(N)=O)C(=O)N[C@@H]([C@@H](C)O)C(=O)N[C@@H](C)C(=O)N[C@@H]([C@@H](C)O)C(=O)N1)[C@@H](C)O)C(=O)N[C@@H](CC(C)C)C(=O)N1CCC[C@H]1C(=O)N1CCC[C@H]1C(=O)N[C@H](C(=O)N[C@@H](CC(N)=O)C(=O)N[C@H](C(=O)NCC(=O)N[C@@H](CO)C(=O)N[C@@H](Cc1c[nH]cn1)C(=O)N[C@H](C(=O)N[C@@H](Cc1ccc(O)cc1)C(N)=O)[C@@H](C)O)C(C)C)[C@@H](C)O [Example 69, N-alpha-[(S)-4-Carboxy-4-(19-carboxynonadecanoylamino)butyryl]-His-His-[Glu14,Arg17,His35]-pramlintide] ({C20 diacid-γGlu}-HHKCNTATCATQRLAEFLRHSSNNFGPILPPTNVGSHTY-NH2; disulfide 4-9)
ThT pH 4.0 lag time: >45 h

CC[C@H](C)[C@H](NC(=O)[C@@H]1CCCN1C(=O)CNC(=O)[C@H](Cc1ccccc1)NC(=O)[C@H](CC(N)=O)NC(=O)[C@H](CCC(N)=O)NC(=O)[C@H](CO)NC(=O)[C@H](CO)NC(=O)[C@H](Cc1c[nH]cn1)NC(=O)[C@H](CCCNC(=N)N)NC(=O)[C@H](CC(C)C)NC(=O)[C@H](Cc1ccccc1)NC(=O)[C@H](CCC(=O)O)NC(=O)[C@H](C)NC(=O)[C@H](CC(C)C)NC(=O)[C@H](CCCNC(=N)N)NC(=O)[C@H](CCC(N)=O)NC(=O)[C@@H](NC(=O)[C@H](C)NC(=O)[C@@H]1CSSC[C@H](NC(=O)[C@H](CCC(=O)O)NC(=O)[C@H](CCCNC(=N)N)NC(=O)[C@H](CCC(=O)O)NC(=O)CC[C@H](NC(=O)CCCCCCCCCCCCCCCCCCC(=O)O)C(=O)O)C(=O)N[C@@H](CC(N)=O)C(=O)N[C@@H]([C@@H](C)O)C(=O)N[C@@H](C)C(=O)N[C@@H]([C@@H](C)O)C(=O)N1)[C@@H](C)O)C(=O)N[C@@H](CC(C)C)C(=O)N1CCC[C@H]1C(=O)N1CCC[C@H]1C(=O)N[C@H](C(=O)N[C@@H](CC(N)=O)C(=O)N[C@H](C(=O)NCC(=O)N[C@@H](CO)C(=O)N[C@@H](CCC(N)=O)C(=O)N[C@H](C(=O)N1CCC[C@H]1C(N)=O)[C@@H](C)O)C(C)C)[C@@H](C)O [Example 162, N-alpha-[(S)-4-Carboxy-4-(19-carboxynonadecanoylamino)butyryl]-Glu-Arg-[Glu1,Glu14,Arg17,Gln21,Gln35,Pro37]-pramlintide] ({C20 diacid-γGlu}-ERECNTATCATQRLAEFLRHSSQNFGPILPPTNVGSQTP-NH2; disulfide 4-9 (inferred); C-terminus assumed)
ThT pH 4.0 lag time (physical stability in fibrillogenesis assay): >45 h
ThT pH 4.0 lag time: >45 h

CC[C@H](C)[C@H](NC(=O)[C@@H]1CCCN1C(=O)CNC(=O)[C@H](Cc1ccccc1)NC(=O)[C@H](CC(N)=O)NC(=O)[C@H](CC(N)=O)NC(=O)[C@H](CO)NC(=O)[C@H](CO)NC(=O)[C@H](Cc1c[nH]cn1)NC(=O)[C@H](CCCNC(=N)N)NC(=O)[C@H](CC(C)C)NC(=O)[C@H](Cc1ccccc1)NC(=O)[C@H](CCC(=O)O)NC(=O)[C@H](C)NC(=O)[C@H](CC(C)C)NC(=O)[C@H](CCCNC(=N)N)NC(=O)[C@H](CCC(N)=O)NC(=O)[C@@H](NC(=O)[C@H](C)NC(=O)[C@@H]1CSSC[C@H](NC(=O)[C@H](CCCCN)NC(=O)[C@H](CCC(=O)O)NC(=O)CC[C@H](NC(=O)CCCCCCCCCCCCCCCCCCC(=O)O)C(=O)O)C(=O)N[C@@H](CC(N)=O)C(=O)N[C@@H]([C@@H](C)O)C(=O)N[C@@H](C)C(=O)N[C@@H]([C@@H](C)O)C(=O)N1)[C@@H](C)O)C(=O)N[C@@H](CC(C)C)C(=O)N1CCC[C@H]1C(=O)N1CCC[C@H]1C(=O)N[C@H](C(=O)N[C@@H](CC(N)=O)C(=O)N[C@H](C(=O)NCC(=O)N[C@@H](CO)C(=O)N[C@@H](Cc1c[nH]cn1)C(=O)N[C@H](C(=O)N[C@@H](Cc1ccc(O)cc1)C(N)=O)[C@@H](C)O)C(C)C)[C@@H](C)O [Example 58, N-alpha-[(S)-4-Carboxy-4-(19-carboxynonadecanoylamino)butyryl]-Glu-[Glu14,Arg17,His35]-pramlintide] ({C20 diacid-γGlu}-EKCNTATCATQRLAEFLRHSSNNFGPILPPTNVGSHTY-NH2; disulfide 3-8 (inferred); C-terminus assumed)
ThT pH 4.0 lag time (physical stability in fibrillogenesis assay): >45 h
ThT pH 4.0 lag time: >45 h

CC[C@H](C)[C@H](NC(=O)[C@@H]1CCCN1C(=O)CNC(=O)[C@H](Cc1ccccc1)NC(=O)[C@H](CC(N)=O)NC(=O)[C@H](CC(N)=O)NC(=O)[C@H](CO)NC(=O)[C@H](CO)NC(=O)[C@H](CCCNC(=N)N)NC(=O)[C@H](Cc1c[nH]cn1)NC(=O)[C@H](CC(C)C)NC(=O)[C@H](Cc1ccccc1)NC(=O)[C@H](CCC(=O)O)NC(=O)[C@H](C)NC(=O)[C@H](CC(C)C)NC(=O)[C@H](CCCNC(=N)N)NC(=O)[C@H](CCC(N)=O)NC(=O)[C@@H](NC(=O)[C@H](C)NC(=O)[C@@H]1CSSC[C@H](NC(=O)[C@H](CCCCN)NC(=O)CC[C@H](NC(=O)CCCCCCCCCCCCCCCCCCC(=O)O)C(=O)O)C(=O)N[C@@H](CC(N)=O)C(=O)N[C@@H]([C@@H](C)O)C(=O)N[C@@H](C)C(=O)N[C@@H]([C@@H](C)O)C(=O)N1)[C@@H](C)O)C(=O)N[C@@H](CC(C)C)C(=O)N1CCC[C@H]1C(=O)N1CCC[C@H]1C(=O)N[C@H](C(=O)N[C@@H](CC(N)=O)C(=O)N[C@H](C(=O)NCC(=O)N[C@@H](CO)C(=O)N[C@@H](Cc1c[nH]cn1)C(=O)N[C@H](C(=O)N[C@@H](Cc1ccc(O)cc1)C(N)=O)[C@@H](C)O)C(C)C)[C@@H](C)O [Example 78, N-alpha-[(S)-4-Carboxy-4-(19-carboxynonadecanoylamino)butyryl]-[Glu14,His17,Arg18,His35]-pramlintide] ({C20 diacid-γGlu}-KCNTATCATQRLAEFLHRSSNNFGPILPPTNVGSHTY-NH2; disulfide 2-7 (inferred))
ThT pH 4.0 lag time: >45 h

CC[C@H](C)[C@H](NC(=O)[C@@H]1CCCN1C(=O)CNC(=O)[C@H](Cc1ccccc1)NC(=O)[C@H](CC(N)=O)NC(=O)[C@H](CC(N)=O)NC(=O)[C@H](CO)NC(=O)[C@H](CO)NC(=O)[C@H](Cc1c[nH]cn1)NC(=O)[C@H](Cc1c[nH]cn1)NC(=O)[C@H](CC(C)C)NC(=O)[C@H](Cc1ccccc1)NC(=O)[C@H](CCC(=O)O)NC(=O)[C@H](C)NC(=O)[C@H](CC(C)C)NC(=O)[C@H](CCCNC(=N)N)NC(=O)[C@H](CCC(N)=O)NC(=O)[C@@H](NC(=O)[C@H](C)NC(=O)[C@@H]1CSSC[C@H](NC(=O)[C@H](CCCNC(=N)N)NC(=O)CNC(=O)CC[C@H](NC(=O)CCCCCCCCCCCCCCCCCCC(=O)O)C(=O)O)C(=O)N[C@@H](CC(N)=O)C(=O)N[C@@H]([C@@H](C)O)C(=O)N[C@@H](C)C(=O)N[C@@H]([C@@H](C)O)C(=O)N1)[C@@H](C)O)C(=O)N[C@@H](CC(C)C)C(=O)N1CCC[C@H]1C(=O)N1CCC[C@H]1C(=O)N[C@H](C(=O)N[C@@H](CC(N)=O)C(=O)N[C@H](C(=O)NCC(=O)N[C@@H](CO)C(=O)N[C@@H](Cc1c[nH]cn1)C(=O)N[C@H](C(=O)N[C@@H](Cc1ccc(O)cc1)C(N)=O)[C@@H](C)O)C(C)C)[C@@H](C)O [Example 100, N-alpha-[(S)-4-Carboxy-4-(19-carboxynonadecanoylamino)butyryl]-Gly-[Arg1,Glu14,His17,His35]-pramlintide] ({C20 diacid-γGlu}-GRCNTATCATQRLAEFLHHSSNNFGPILPPTNVGSHTY-NH2; disulfide 3-8 (inferred))
ThT pH 4.0 lag time: 26 h

Source: US8741836B2, “Polypeptides” (Novo Nordisk A/S, priority 2011, dated 2014)
